Reference: PubChem BioAssay (NCI)
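Exposure lasted 48 hours, with cells grown in 96-well plates and compounds tested at five concentrations. TGI: total growth inhibition.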

Tests used:
Assay in all cases: DTP human tumour cell line panel, 48 h
MCF7 breast = test system: MCF7 breast
A498 renal = test system: A498 renal
IGROV1 ovarian = test system: IGROV1 ovarian
UACC-62 melanoma = test system: UACC-62 melanoma
UACC-257 melanoma = test system: UACC-257 melanoma
EKVX NSCLC = test system: EKVX NSCLC
SNB-19 CNS = test system: SNB-19 CNS
HCT-15 colon = test system: HCT-15 colon
NCI-H226 lung = test system: NCI-H226 lung
MDA-N = test system: MDA-N
HCT-116 colon = test system: HCT-116 colon
CCRF-CEM leukemia = test system: CCRF-CEM leukemia
SW-620 colon = test system: SW-620 colon
NCI-H522 lung = test system: NCI-H522 lung
RPMI-8226 leukemia = test system: RPMI-8226 leukemia
BT-549 breast = test system: BT-549 breast
HL-60(TB) leukemia = test system: HL-60(TB) leukemia
DU-145 prostate = test system: DU-145 prostate
PC-3 prostate = test system: PC-3 prostate
HOP-62 NSCLC = test system: HOP-62 NSCLC
SF-295 CNS = test system: SF-295 CNS
SK-MEL-5 melanoma = test system: SK-MEL-5 melanoma
KM12 colon = test system: KM12 colon
786-0 renal = test system: 786-0 renal
SR leukemia = test system: SR leukemia
ACHN renal = test system: ACHN renal
HT29 colon = test system: HT29 colon
SF-539 CNS = test system: SF-539 CNS
SN12C renal = test system: SN12C renal
NCI-H23 lung = test system: NCI-H23 lung
TK-10 renal = test system: TK-10 renal
OVCAR-8 ovarian = test system: OVCAR-8 ovarian
MOLT-4 leukemia = test system: MOLT-4 leukemia
LOX IMVI melanoma = test system: LOX IMVI melanoma
SK-OV-3 ovarian = test system: SK-OV-3 ovarian
T-47D breast = test system: T-47D breast
NCI/ADR-RES ovarian = test system: NCI/ADR-RES ovarian
SK-MEL-28 melanoma = test system: SK-MEL-28 melanoma
CAKI-1 renal = test system: CAKI-1 renal
RXF 393 renal = test system: RXF 393 renal
HCC-2998 colon = test system: HCC-2998 colon
COLO 205 colon = test system: COLO 205 colon
K-562 leukemia = test system: K-562 leukemia
MDA-MB-231 breast = test system: MDA-MB-231 breast
M14 melanoma = test system: M14 melanoma
U251 CNS = test system: U251 CNS
SF-268 CNS = test system: SF-268 CNS
OVCAR-5 ovarian = test system: OVCAR-5 ovarian
UO-31 renal = test system: UO-31 renal
MDA-MB-435 = test system: MDA-MB-435
MALME-3M melanoma = test system: MALME-3M melanoma
A549 NSCLC = test system: A549 NSCLC
HS 578T breast = test system: HS 578T breast

Measured: TGI

N#CCc1c(F)c(F)c(F)c(F)c1F
> 100 µM: MCF7 breast | A498 renal | IGROV1 ovarian | UACC-62 melanoma | UACC-257 melanoma | EKVX NSCLC | SNB-19 CNS | HCT-15 colon | NCI-H226 lung | MDA-N | HCT-116 colon | CCRF-CEM leukemia | SW-620 colon | NCI-H522 lung | RPMI-8226 leukemia | BT-549 breast | HL-60(TB) leukemia | DU-145 prostate | PC-3 prostate | HOP-62 NSCLC | SF-295 CNS | SK-MEL-5 melanoma | KM12 colon | 786-0 renal | SR leukemia | ACHN renal | HT29 colon | SF-539 CNS | SN12C renal | NCI-H23 lung | TK-10 renal | OVCAR-8 ovarian | MOLT-4 leukemia | LOX IMVI melanoma | SK-OV-3 ovarian | T-47D breast | NCI/ADR-RES ovarian | SK-MEL-28 melanoma | CAKI-1 renal | RXF 393 renal | HCC-2998 colon | COLO 205 colon | K-562 leukemia | MDA-MB-231 breast | M14 melanoma | U251 CNS | SF-268 CNS | OVCAR-5 ovarian | UO-31 renal | MDA-MB-435 | MALME-3M melanoma | A549 NSCLC | HS 578T breast
